Series [1] concerns spontaneously hypertensive rats. Nature of the series: Blood pressure lowering in spontaneously hypertensive rats. Type of series: in vivo, rat. The text has this:
Pharmacol. 37, 263-265 (1984). Without further elaboration,it is believed that one skilled in the art can, using the preceding description, practice the present invention to its fullest extent.

Another series deals with dopamine receptors. The settings on record: background; cited from earlier work.
Series [2] can be described thus: Bioavailability from decrease in rectal temperature after s.c. and p.o. administration. It counts as in vivo, rat. As to conditions: rectal temperature decrease after s.c. (25.0 μmol/kg) and p.o. (100.0 μmol/kg); nonpretreated rats. The source says: "Temp" denotes the bioavailabilty as estimated by comparing the decrease
in rectal temperature after s.c. (25.0 μmol/kg) and p.o. (100.0
μmol/kg) administration of the test drugs in nonpretreated rats (c.f.,
FIGS. 1 and 2). "Plasma" denotes the availability as estimated by […]

Another series concerns the target dopamine D2 receptor (Homo sapiens, UniProt P14416). Briefly: In vitro binding, dopamine D2. Here is the method: ^e The affinity of the test compounds for dopamine D2 receptor sites
was determined by calculating the IC50 value (see text).

Series [3] concerns Reserpine Pretreated Rats. Briefly: Gross behavior (antagonism of reserpine-induced neuroleptic syndrome). It counts as in vivo, rat. The source says:
Antagonism of the reserpine-induced "neuroleptic syndrome" in the rat (gross behavior)
Depletion of the monoamine stores with reserpine brings about a "neuroleptic syndrome" characterized by hypomotility, catalepsy, muscle rigidity, hunch-backed posture as well as a number of other central and peripheral signs of monoamine depletion. The whole or parts of this syndrome can be reversed by the administration of drugs that stimulate dopamine or 5-HT receptors directly or indirectly.
Stimulation of the dopamine receptors, with apomorphine for example, gives rise to both locomotion and stereotyped behavior such as sniffing, gnawing and jumping. On the other hand, stimulation of the 5-HT receptors, with 5-hydroxytryptophane (5-HTP) combined with MAO-inhibitors for example, gives rise to a very different behavior.
(§1) Rats (150-300 g) pretreated with reserpine (5 mg/kg, 18 hours before) were given the test compounds. Gross behavioral observations (changes in motility, hindleg abduction, etc.) were made. Subsequent administration of NSD 1015, decapitation, brain dissection (corpora striata, the limbic forebrain and the remaining hemispheral portions (mainly cortex) or rat brain), homogenization, centrifugation, ion-exchange chromatography and spectrofluorimetric measurements (all as described in detail by Wikstrom, et al., J. Med. Chem., 21, 864-867, 1978 and reference cited therein), or by HPLC/EC, gave the actual dopamine and 5-HTP levels. Several doses (n-4-6) were tested for each compound and brain area. The dose of a compound giving 50% of the maximal reduction of the %-HTP level in the rat brain part was then estimated.
^d The gross behavior of the animals was observed during the course o
the experiments. The 5HT behavioral syndrome consisted of flat body
psoture, abducted hind and forelegs, forepaw treading (pianoplaying) and […]

A short description of series [4]: Bioavailability from ED50 values after s.c. and p.o. administration. Type of series: in vivo, rat. As to conditions: comparing ED50 values, reserpine-pretreated rats. The source says: ^f "Bioch" denotes the bioavailability as estimated by comparing the
ED50 values after s.c. and p.o. administration (reserpinepretreated rats)

Series [5] can be described thus: Bioavailability from plasma drug levels (GC/MS) after s.c. and p.o. administration. Type of series: in vivo, rat. The settings on record: plasma drug levels by GC/MS after s.c. and p.o.; nonpretreated rats. The text has this:
FIGS. 1 and 2). "Plasma" denotes the availability as estimated by
comparing plasma drug levels (measured by means of GC/MS) after s.c. and
p.o. administration of test drugs in nonpretreated rats.

The next series deals with T1, 5-HT1A receptor (Homo sapiens, UniProt P08908).
T1 sequence (P08908 1-422): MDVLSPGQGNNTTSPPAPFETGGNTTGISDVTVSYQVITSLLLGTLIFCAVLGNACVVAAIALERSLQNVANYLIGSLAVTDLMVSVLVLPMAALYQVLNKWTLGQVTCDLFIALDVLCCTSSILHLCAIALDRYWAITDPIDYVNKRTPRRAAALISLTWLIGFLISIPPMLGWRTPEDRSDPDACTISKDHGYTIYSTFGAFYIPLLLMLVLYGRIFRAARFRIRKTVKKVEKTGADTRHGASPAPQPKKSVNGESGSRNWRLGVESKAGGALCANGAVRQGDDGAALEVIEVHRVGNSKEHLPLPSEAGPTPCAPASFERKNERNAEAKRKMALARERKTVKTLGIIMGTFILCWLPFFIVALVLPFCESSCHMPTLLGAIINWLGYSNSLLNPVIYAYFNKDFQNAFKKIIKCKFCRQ
Briefly: In vitro binding, 5-HT1A. The source says: The compounds of this invention where --OR1 is in the 8 position in the aromatic ring are very selective 5-HT1A receptor agonists having little or no dopaminergic activity. […] These compounds are particularly effective anxiolytic and antidepressant agents. Other uses for these compounds include panic attacks, obsessive-compulsive disturbances, and senile dementia particularly the emotional disturbances seen in dementia disorders. In addition, central 5-HT receptor activation are believed to be involved in mediating sexual behavior. These compounds would be useful to stimulate sexual activity and to alleviate impotence.

For a further series, the system named is 5-HT receptor. Briefly: In-vivo tryptophan hydroxylation (5-HTP formation) in limbic forebrain of reserpine-pretreated rats after NSD 1015. More on the design: species or system rat. The settings on record: limbic brain part. Here is the method:
In-vivo determination of rat brain tyrosine and tryptophan hydroxylation after reserpine pretreatment (biochemically monitored dopamine and 5-HT receptor activity)
The compounds under evaluation were tested biochemically for central dopamine and 5-HT receptor (pre- and/or postsynaptic) stimulating activity. The concept of this biochemical screening method is that a dopamine or 5-HT-receptor agonist will stimulate the receptor and through regulatory feedback systems effect a decline in tyrosine or tryptophan hydroxylating activity, respectively, and a subsequent reduction in the synthesis rate for dopamine and 5-HT in the presynaptic neuron. Dopamine and 5-HTP formation, as determined after in-vivo inhibition of the aromatic L-amino acid decarboxylase with NSD 1015 (3-hydroxybenzylhydrazine hydrochloride) are taken as indirect measures of dopamine and 5-HT-synthesis rates, respectively.
as §1
^b Dose giving a half maximal decrease of 5HTP formation in the rat
limbic brain part. The values were estimated from doseresponse curves
comprising 4 to 6 levels (n = 4).
Control level was: 191 ng/g.

Where two headings read alike, the source gives them in different places.

Chain of dopamine D2 receptor (P14416 whole entry, species assumed): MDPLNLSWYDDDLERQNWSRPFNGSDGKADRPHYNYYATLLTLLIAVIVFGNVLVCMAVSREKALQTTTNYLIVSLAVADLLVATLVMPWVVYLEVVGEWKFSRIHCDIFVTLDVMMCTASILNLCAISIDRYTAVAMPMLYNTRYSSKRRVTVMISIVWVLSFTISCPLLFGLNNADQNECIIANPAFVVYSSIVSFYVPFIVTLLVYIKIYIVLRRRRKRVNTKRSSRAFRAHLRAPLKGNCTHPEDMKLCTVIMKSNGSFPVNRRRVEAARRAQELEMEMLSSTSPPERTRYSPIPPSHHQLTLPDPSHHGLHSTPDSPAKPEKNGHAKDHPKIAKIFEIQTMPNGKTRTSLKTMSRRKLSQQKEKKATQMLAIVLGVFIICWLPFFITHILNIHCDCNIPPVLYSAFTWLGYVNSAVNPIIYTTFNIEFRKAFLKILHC

As to `COc1cccc2c1C[C@H](N(CC1CC1)CC1CC1)CC2` [Example 12, (+)-R-8-Methoxy-2-(di-cyclopropyl-methylamino)tetralin], in series [1], the “blood pressure lowering effects” value is recorded as “demonstrate blood pressure lowering effects”.

As for “(-)-R-8-Methoxy-2-(di-cyclopropylmethylamino)tetralin [Example 13]”, in [1], the “blood pressure lowering effects” value is “demonstrate blood pressure lowering effects”.

`CN1CCc2cccc3c2[C@H]1Cc1ccc(O)c(O)c1-3` [apomorphine]: the “dopamine receptor antagonism / agonism” value in the series with dopamine receptors is given as “able to activate the dopamine autoreceptors as well as the post synaptic dopamine receptors”.

For the compound `O=C1CC2(CCCC2)CC(=O)N1CCCCN1CCN(c2ncccn2)CC1` [Buspirone], in the series on dopamine receptors, the “dopamine receptor antagonism / agonism” value is given as “antagonizes dopamine receptors at the same dose it stimulates 5-HT1A receptors”.

By IC50 is commonly meant the concentration needed to halve the response being measured. For `COc1cccc2c1CC(N(CC1CC1)CC1CC1)CC2` (stereo not shown) [Example 8-OMe-DCPMAT, 8Methoxy-2-(N,N-dicyclopropylmethylamino)tetralin], the Bioavailability temp po/sc in series [2] stood at 36%. The concentration for half-maximal inhibition (IC50) on dopamine D2 receptor is 40000 nM; on 5-HT1A receptor it was 21 nM. Also, the Behavior in [3] (po) and in series [3] (sc) was 5-HT syndr throughout. The Bioavailability bioch po/sc in series [4] is 60%. In series [5], the Bioavailability plasma po/sc is recorded as 6-16%. Further, the “IC50 ratio of dopamine D2 to 5HT1A in vitro binding (selectivity)” value on 5-HT1A receptor (in vitro binding, Table 1 data) is on record as “demonstrates the selectivity for the 5-HT1A receptor”. Also, the “ED50 5-HTP limb” value is 2.0 µmol/kg in the series on 5-HT receptor (po) and 1.2 µmol/kg with 5-HT receptor (sc).

Take `CCCN(CC1CC1)C1CCc2cccc(OC)c2C1` (stereo not shown) [Example 8-OMe-CPMAT, 8Methoxy-2-(N-cyclopropylmethyl-N-n-propylamino)tetralin]: the Behavior in series [3] (po) and in series [3] (sc) was 5-HT syndr in each case. Moreover, the Bioavailability bioch po/sc in series [4] was determined as 12%. Also, on 5-HT1A receptor (in vitro binding, read-out: In vitro binding 5-HT1A IC50), the 50% inhibitory concentration (IC50) is 6 nM. The “ED50 5-HTP limb” value was determined as 3.3 µmol/kg in the series with 5-HT receptor (po) and 0.40 µmol/kg in the series with 5-HT receptor (sc).

Turning to `COc1cccc2c1CC(N(CCc1cccs1)CC1CC1)CC2` (stereo not shown) [Example 17, 8-Methoxy-2-(N-cyclopropylmethyl-N-(2-thiophenethyl)-amino)tetralin], the “blood pressure lowering effects” value in [1] is recorded as “demonstrate blood pressure lowering effects”.

Consider `CC1(C)CC(=O)N(CCCCN2CCN(c3ncccn3)CC2)C(=O)C1` [Gepirone], for which the “dopamine receptor antagonism / agonism” value with dopamine receptors is recorded as “has dopamine antagonist properties”.

Values taken from patent US5214156A, “Therapeutically useful tetralin derivatives” (The Upjohn Company, priority 1992, dated 1993).
